Data taken from ChEMBL document CHEMBL1136654, “1H-Pyrazolo[3,4-b]pyridine inhibitors of cyclin-dependent kinases” (Bioorg Med Chem Lett, 2003).

Tests used:
[1] = target: Cyclin-dependent kinase 2/cyclin E (Homo sapiens, UniProt P24941); test: In vitro inhibition of human CDK2/cyclin E.; type: protein-complex assay
[2] = target: Cyclin-dependent kinase 1/cyclin B (Homo sapiens, UniProt P06493); test: Inhibitory concentration against CDK1/cyclin B was determined; type: protein-complex assay
[3] = target: Protein kinase C (PKC); test: Inhibition of PKC; type: protein assay
[4] = target: Tyrosine-protein kinase Lck (Homo sapiens, UniProt P06239); test: Inhibition of LCK
[5] = target: Cyclin-dependent kinase 7/ cyclin H (Homo sapiens, UniProt P50613); test: Inhibition of CDK7/cyclin H; type: protein-complex assay
[6] = target: cAMP-dependent protein kinase (PKA) (Homo sapiens, UniProt P22694+P17612+P22612); test: Inhibition of PKA; type: protein assay
[7] = target: Cyclin-dependent kinase 4/cyclin D (Homo sapiens, UniProt P11802); test: Inhibition of CDK4/cyclin D was determined; type: protein-complex assay
[8] = tested on: A2780; test: Cytotoxic effect in ovarian cancer cell line (A2780); type: functional, cell-based; conditions: Homo sapiens

Sequence of Tyrosine-protein kinase Lck (P06239 whole entry): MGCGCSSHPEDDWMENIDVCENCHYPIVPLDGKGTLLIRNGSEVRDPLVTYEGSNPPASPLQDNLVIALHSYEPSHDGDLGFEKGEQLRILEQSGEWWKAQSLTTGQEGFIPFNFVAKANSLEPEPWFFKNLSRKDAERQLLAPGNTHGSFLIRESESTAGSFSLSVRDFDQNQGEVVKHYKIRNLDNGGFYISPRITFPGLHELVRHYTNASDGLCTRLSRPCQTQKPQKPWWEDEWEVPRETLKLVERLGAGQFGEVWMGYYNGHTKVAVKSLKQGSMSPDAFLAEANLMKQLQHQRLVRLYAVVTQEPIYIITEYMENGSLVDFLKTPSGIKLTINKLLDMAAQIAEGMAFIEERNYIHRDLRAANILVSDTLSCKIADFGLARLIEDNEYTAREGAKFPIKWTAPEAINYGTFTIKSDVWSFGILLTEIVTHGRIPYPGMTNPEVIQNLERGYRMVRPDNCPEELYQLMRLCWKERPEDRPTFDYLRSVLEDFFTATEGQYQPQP
Sequence of Cyclin-dependent kinase 7/ cyclin H (P51946 whole entry): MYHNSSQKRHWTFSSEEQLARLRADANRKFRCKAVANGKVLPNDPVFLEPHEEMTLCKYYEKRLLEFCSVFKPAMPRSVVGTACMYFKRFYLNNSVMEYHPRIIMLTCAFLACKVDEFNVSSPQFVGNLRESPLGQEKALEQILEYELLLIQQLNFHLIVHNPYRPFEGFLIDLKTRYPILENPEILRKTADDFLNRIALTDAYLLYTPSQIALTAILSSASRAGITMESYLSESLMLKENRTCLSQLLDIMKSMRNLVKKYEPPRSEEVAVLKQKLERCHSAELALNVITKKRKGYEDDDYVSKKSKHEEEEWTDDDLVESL
Sequence of Cyclin-dependent kinase 7/ cyclin H (P50613 whole entry): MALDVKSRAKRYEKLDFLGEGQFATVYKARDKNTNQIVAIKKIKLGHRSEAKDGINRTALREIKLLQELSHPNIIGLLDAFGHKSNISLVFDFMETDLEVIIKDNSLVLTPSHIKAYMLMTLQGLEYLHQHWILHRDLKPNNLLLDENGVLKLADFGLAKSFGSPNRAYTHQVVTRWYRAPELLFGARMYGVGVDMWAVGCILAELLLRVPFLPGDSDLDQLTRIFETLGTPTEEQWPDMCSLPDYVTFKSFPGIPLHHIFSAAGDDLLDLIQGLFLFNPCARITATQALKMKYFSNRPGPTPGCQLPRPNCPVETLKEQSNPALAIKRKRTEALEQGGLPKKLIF

Structure (SMILES): CCCCN(C)c1c(C(=O)c2ccccc2)cnc2[nH]ncc12
- IC50 [1]: > 25000 nM

Structure (SMILES): CCCC(C)Oc1c(C(=O)c2ccccc2)cnc2[nH]ncc12 (stereo not given)
- IC50 [1]: 520 nM
- IC50 [2]: 310 nM

Structure (SMILES): O=C(c1ccccc1)c1cnc2[nH]ncc2c1OCc1ccccc1
- IC50 [1]: 280 nM
- IC50 [2]: 350 nM

Structure (SMILES): O=C(c1ccccc1)c1cnc2[nH]ncc2c1OCCO
- IC50 [1]: 3700 nM

Structure (SMILES): C=C(c1ccccc1)c1c[nH]c2nncc-2c1OCCCC
- IC50 [1]: > 25000 nM

Structure (SMILES): CCCCOc1c2cnnc-2[nH]cc1C(O)c1ccccc1 (stereo not given)
- IC50 [1]: > 25000 nM

Structure (SMILES): CCCCSc1c(C(=O)c2ccccc2)cnc2[nH]ncc12
- IC50 [1]: 4400 nM

Structure (SMILES): CCCCOc1c(Cc2ccccc2)c[nH]c2nncc1-2
- IC50 [1]: > 25000 nM

Structure (SMILES): CCn1ncc2c(OCCC(C)C)c(C(=O)c3ccccc3)cnc21
- IC50 [1]: > 25000 nM

Structure (SMILES): CCCCCOc1c(C(=O)c2ccccc2)cnc2[nH]ncc12
- IC50 [1]: 240 nM
- IC50 [2]: 310 nM

Structure (SMILES): O=C(c1ccccc1)c1cnc2[nH]ncc2c1Oc1ccccc1
- IC50 [1]: 15000 nM

Structure (SMILES): CN(C)CCOc1c(C(=O)c2ccccc2)cnc2[nH]ncc12
- IC50 [1]: 17000 nM

Structure (SMILES): CC(C)CCOc1c(C(=O)c2ccccc2)c[nH]c2nncc1-2
- IC50 [3]: > 50000 nM
- IC50 [4]: > 50000 nM
- IC50 [1]: 180 nM
- IC50 [5]: 1100 nM
- IC50 [2]: 240 nM
- IC50 [6]: > 50000 nM
- IC50 [7]: > 25000 nM

Structure (SMILES): O=C(c1ccccc1)c1cnc2[nH]ncc2c1OC1CCCCC1
- IC50 [1]: 660 nM
- IC50 [2]: 600 nM

Structure (SMILES): CCCOc1c(C(=O)c2ccccc2)cnc2[nH]ncc12
- IC50 [1]: 180 nM
- IC50 [2]: 220 nM

Structure (SMILES): CCCCOc1c(C(=O)c2ccccc2)cnc2[nH]ncc12 [SQ-67563]
- IC50 [1]: 110 nM
- IC50 [2]: 150 nM
- IC50 [8]: 5800 nM
- IC50 [7]: > 25000 nM
